Measurements from the NIST ThermoML archive (doi:10.1021/je049701s).

Settings: Liquid; for mass density: 293.1 K, 101.33 kPa; for vapor or sublimation pressure: Ebulliometric method (Recirculating still)

Cc1ccccc1C [1,2-dimethylbenzene]
Settings	Normal boiling temperature [°C]	mass density [kg/m3]	vapor or sublimation pressure [kPa]
396.73 K	–	–	55
399.52 K	–	–	60
400.66 K	–	–	62.13
404.71 K	–	–	70
407.05 K	–	–	75
409.44 K	–	–	80.33
411.44 K	–	–	85
413.5 K	–	–	90
415.44 K	–	–	95
418.23 K	–	–	102.5
427 K	–	–	129.3
Vibrating tube method	–	879.8	–
ebulliometry	144.40	–	–

Cc1cccc(C)c1 [1,3-dimethylbenzene]
Settings	mass density [kg/m3]	vapor or sublimation pressure [kPa]
–	864.2	–
362.45 K	–	21.82
366.31 K	–	25
371.49 K	–	29.94
376.31 K	–	35
380.81 K	–	40.36
384.3 K	–	45
387.84 K	–	50
389.84 K	–	53.54
393.34 K	–	60
397.71 K	–	67.97
400.96 K	–	75
403.25 K	–	80
406.5 K	–	87.74
407.5 K	–	90
409.4 K	–	95
415.54 K	–	111.8
423.34 K	–	137.3

Cc1ccc(C)cc1 [1,4-dimethylbenzene]
Settings	mass density [kg/m3]	vapor or sublimation pressure [kPa]
–	861.2	–
389.8 K	–	53.26
390.85 K	–	55
393.61 K	–	60
398.72 K	–	70
401.06 K	–	75
403.29 K	–	80
405.37 K	–	84.84
409.38 K	–	95
420.93 K	–	129.7

CCc1ccccc1 [ethylbenzene]
Settings	mass density [kg/m3]	vapor or sublimation pressure [kPa]
–	867.1	–
385.7 K	–	50
387.75 K	–	53.37
391.51 K	–	60
394.15 K	–	65
397.49 K	–	71.87
398.93 K	–	75
401.16 K	–	80
403.27 K	–	85
405.26 K	–	90
407.14 K	–	95
412.49 K	–	110.02
417 K	–	124.3
